# Laboratory results: article PMC3003687, “α-Galactosylceramide Analogs with Weak Agonist Activity for Human iNKT Cells Define New Candidate Anti-Inflammatory Agents” (PLoS ONE, 2010)
# Assays:
# [1] = test system: human iNKT cells and NK cells; assay: In vitro transactivation assay (CFSE-labeled iNKT cells co-cultured with PBMC); type: cell-based; settings: for IL-12 levels in supernatants / IL-13 levels in supernatants / IL-18 levels in supernatants / global IFNγ production in supernatants: 24 h, ELISA
# Procedure: iNKT cells were stained for 5 minutes with 1–20 µM of CFSE (Molecular probes) and 5% FCS in PBS and washed twice. As a positive control, a fraction of CFSE-labeled iNKT cells were preactivated for 30 minutes with 1 µg/mL of PMA and 250 ng/mL of Ionomycin (Sigma-Aldrich) in culture medium and extensively washed. The experiment was initiated by adding CFSE-labeled unstimulated or PMA/Ionomycin-preactivated iNKT cells to freshly prepared PBMC pulsed with vehicle or αGalCer analogs at the indicated concentrations and at an iNKT/PBMC ratio of 1/10 or 1/40. Supernatants and cells were harvested from parallel conditions after the indicated time of co-culture. For intracellular cytokine staining, brefeldin A (Golgiplug, BD Biosciences) was added 4 h before harvesting the cells, which were fixed with 1% paraformaldehyde and permeabilized with 0.1% saponin (Sigma-Aldrich) prior to mAb staining. Experiments with blocking antibodies were performed with 10 µg/mL of preservative-free mAbs, including isotype matched control, anti-IL-2, anti-IL-12, anti-IFNγ and anti-CD40L (all from BD Biosciences) or anti-IL-18 (MBL). For detection of CD40L expression by iNKT cells, co-cultures of iNKT and PBMC were prepared as above, except that monensin (Golgistop, BD Biosciences) and fluorescent CD40L specific mAb (1/10 or 1/20 final dilution) were added at the beginning of the experiment, as previously described.
# Figure 6 A novel in vitro “transactivation assay” to assess the ability of human iNKT cells to activate other leukocytes. (A) Format for analysis of transactivation of bystander leukocytes. Flow cytometric analysis was carried out for culture containing iNKT cells co-cultured for 24 hours with fresh human PBMC at a 1/10 ratio. For the intracellular detection of IFNγ, Brefeldin A was added for the last 4 hours. Representative electronic gating is shown for the discrimination of CFSE-labeled iNKT cells, B cells, T cells, and NK cells to measure IFNγ expression (or CD69 expression, not shown). Filled black histograms show staining with vehicle control and are overlaid with open gray histograms for stimulation with 100 nM of KRN7000. (B) Dose-dependent IFNγ and CD40L expression by iNKT cells (top and middle graph, respectively) and IFNγ production by transactivated NK cells (bottom graph), after 24 h of co-culture of CFSE-labeled iNKT cells and PBMCs at a 1/10 ratios and the indicated concentration of either KRN7000 (black filled circles) or the adamantanoyl (AD) analog (open circles). Data are presented for a CD4^+ clone (HDD3), and similar results (not shown) were obtained with a DN clone (HDE3). (C) Effect of specific blockade of various cytokines and CD40L on the activation of iNKT cells and transactivated NK cells. CFSE-labeled iNKT cells and PBMCs were co-cultured at a 1/40 ratio for the indicated time, in the presence of KRN7000 at 25 nM and 10 µg/mL of isotype matched control or specific blocking antibodies as indicated. Average percentages of IFNγ^+ iNKT cells and NK cells, assessed by intracellular staining at 24, 48 and 66 hours, are indicated in the left and right plots, respectively.
# Figure 7 Comparison of αGalCer analogs for their ability to induce NK cell transactivation. (A) iNKT cell clones were co-cultured for 24 hours with fresh human PBMC at a 1/10 ratio with 100 nM of the indicated analogs, and Brefeldin A was added for the last 4 hours. The percentages of IFNγ^+ iNKT cells (open bars) and IFNγ^+ NK cells (filled bars) are indicated. Cytokine levels were assessed by ELISA in supernatants from identical conditions in absence of Brefeldin A treatment: (B) IFNγ levels (open bars) and IL-13 levels (filled bars); the detection limit was 82.3 ng/mL for both cytokines. (C) IL-12 levels (open bars) and IL-18 levels (filled bars); the detection limit was 27.4 ng/mL. Results obtained with a CD4^+ clone (HDD3) are presented, and similar data (not shown) were obtained with a DN clone (HDE3).
# [2] = test system: human iNKT cell clones; assay: Cytokine ELISA of human iNKT cell clones stimulated with glycolipid-pulsed CD1d-transfected HeLa cells; type: cell-based; settings: for dose inducing the lowest activation state (IL-13 and GM-CSF secretion): CD1d-transfected Hela cells and dendritic cells as APCs; for iNKT cell clone cytokine response / agonist activity: dose range, IFNγ, IL-4, IL-13, clones HDD3, HDD11, HDE3, HDA7
# Procedure: Capture ELISA assays were used for measurement of cytokine responses of human iNKT cells to αGalCer analogs. One day prior to the experiment, CD1d transfected HeLa cells were plated at 25×10^3 cells/well in 100 µL of medium in flat-bottom 96 well plates. Glycolipids were then added in 100 µL of medium to give final concentrations ranging from 0.05 to 10^4 nM. The APCs were incubated for approximately 18 hours with the glycolipids and then irradiated (10,000 Rad) and washed twice with PBS prior to addition of 25×10^3 iNKT cells well in 300 µL. Supernatants were harvested after 24 hours of co-culture and stored frozen at -20°C. After thawing, aliquots of the supernatants were assayed for specific cytokines by ELISA using capture and biotin-labeled detection antibody pairs specific for GM-CSF, IL-2, IL-4, IL-12p70 and IL-13 (all obtained from BD Biosciences), IFNγ (Thermo-Scientific) or IL-18 (MBL). Specific signals were developed using HRP- conjugated streptavidin (BD Biosciences) and Turbo TMB substrate (Thermo-Scientific). Supernatants were tested pure and/or diluted to give values within a quantitative linear standard curve generated with recombinant cytokines. Curves of dose-dependent cytokine responses and graphs were plotted using the Graphpad Prism Software. EC50 values were calculated using the function log (agonist) response with variable slope, and statistical analyses were carried out using the same software. To calculate concentration-dependent cytokine ratios, IL-4/IFNγ and IL-13/IFNγ ratios were calculated using cytokine values from which background levels (i.e. levels in cultures receiving DMSO vehicle alone) were subtracted. Ratios were calculated by dividing IL-4 or IL-13 concentrations in pg/mL by IFNγ concentration in ng/mL.
# [3] = CD1d-transfected HeLa APC, 24 h co-culture, ELISA
SMILES,IL-12 levels in supernatants ([1]; 100 nM),IL-13 levels in supernatants ([1]; 100 nM),IL-18 levels in supernatants ([1]; 100 nM),global IFNγ production in supernatants ([1]; 100 nM),dose inducing the lowest activation state (IL-13 and GM-CSF secretion) [2] [nM],iNKT cell clone cytokine response / agonist activity [2],"EC50 ([2]; Homo sapiens, iNKT, HDD3 clone, IL-4 levels did not reach a plateau) [µM]","IFNγ production in bystander leukocytes (intracellular staining) ([1]; 100 nM, iNKT/PBMC 1/10)",CD69 induction in bystander leukocytes upon iNKT cell stimulation ([1]; not shown),"concentration at which IL-13 production was induced [2, 3] [nM]","concentration reaching maximal IL-13 production [2, 3]","higher concentration required for IFNγ to be induced and reach plateau, relative to IL-13 [2, 3]","concentration saturating IL-4 production ([2]; CD1d-transfected HeLa APC, data not shown)"
CCCCC/C=C\C/C=C\CCCCCCCCCC(=O)N[C@@H](CO[C@H]1O[C@H](CO)[C@H](O)[C@H](O)[C@H]1O)[C@H](O)[C@H](O)CCCCCCCCCCCCCC [C20:2],detectable IL-12 generation,high IL-13 levels,enhanced IL-18 levels compared to vehicle control,high global production of IFNγ,< 1,strong agonist activity,,,,,,,
CCCCC/C=C\C/C=C\C/C=C\C/C=C\CCCC(=O)N[C@@H](CO[C@H]1O[C@H](CO)[C@H](O)[C@H](O)[C@H]1O)[C@H](O)[C@H](O)CCCCCCCCCCCCCC [C20:4],detectable IL-12 generation,high IL-13 levels,enhanced IL-18 levels compared to vehicle control,high global production of IFNγ,,substantially lower iNKT cell response,> 10,,,,,,
"CCCCCCCCCCCCCCCCCCCCCCCCCC(=O)N[C@@H](CO[C@H]1O[C@H](CO)[C@H](O)[C@H](O)[C@H]1O)[C@H](O)[C@H](O)CCCCCCCCCCCCCC [KRN7000, reference compound]",,,,,< 1,strong agonist activity,,"detectable at 24 h in NK cells, but not in T cells or B cells","nearly all B cells and NK cells, but not T cells, became CD69^+",≤ 0.1,approximately 1 nM,approximately 1 log,very high KRN7000 concentrations in the µM range
